# Key:
# [1] = test system: IL-6; assay: LPS-induced IL-6 secretion in primary human monocyte-derived macrophages (ELISA); assay type: cell-based; settings: for Donor 1 IL-6 Measurements Mean / Donor 2 IL-6 Measurements Mean / Donor 3 IL-6 Measurements Mean: LPS, baseline subtracted
# Method: (§1) Primary human PMBC derived macrophages were seeded on day 0 at 3.0×10^4 cells per well in 96-well microplates (ThermoFisher) in Dulbecco's Modified Eagle Medium (DMEM) (Gibco) supplemented with penicillin-streptomycin (Hyclone) and 10% heat inactivated fetal bovine serum (HI-FBS) (Atlanta Bio) and incubated overnight at 37° C., 5% CO2. On day 1, cells were washed once with 150 μl per well DPBS (Gibco) and treated with 75 μl of: • a. […] The same medium described above with one amino acid at various concentrations including complete dropout. […] On day 3, the supernatant was collected and immediately frozen in −80° C. freezer. Cells were washed once with 150 μl DPBS and viability was assessed using the WST-8 Cell Proliferation Cytotoxicity Assay (Dojindo). […] Protein levels in supernatant samples were analyzed by ELISA for IL-6 and TNFα using commercially available kits (R&D Systems) according to manufacturer-supplied protocols.
# [2] = test system: TNFα; assay: LPS-induced TNF-α secretion in primary human monocyte-derived macrophages (ELISA); assay type: cell-based; settings: LPS, baseline subtracted
# Method: as §1
# [3] = test system: RBCs of healthy whole blood; assay: RBC deformability (Elongation Index, LORRCA ektacytometry), ex vivo TBHP oxidation of healthy whole blood; assay type: cell-based, human; settings: healthy donor 2, single amino acid treatments
# Source text: Whole blood from healthy African American and/or Hispanic donors was obtained from Research Blood Components, LLC based on the following donor selection criteria: Adult age (between 18 and 50 years), normal BMI (<30), and absence of other confounding clinical conditions. Whole blood from SCD donors were obtained from BioIVT based on the following donor selection criteria: Patients with genotypes HbSS, HbSC, HbS/β^0 and at least 1-2 months gap since last blood transfusion. Whole blood was shipped on ice on the same day as blood draw. Upon receipt, the blood sample was aliquoted and stored in the refrigerator until used for studies.
# RBC deformability measurements were conducted with the Laser Optical Rotational Red Cell Analyzer (LORRCA) from RR Mechatronics in a temperature-controlled environment (37° C.). Briefly, an even layer of RBCs suspended in polyvinylpyrrolidone (PVP) is subjected to shear stress gradient (0.3 to 30 Pa) through two concentric cylinders and the resulting changes in RBC shape or deformability are measured by a laser beam diffraction pattern. The captured images of RBC shape in response to increasing shear stress are then analyzed by the LORRCA program to calculate Elongation Index (EI).
# Healthy RBCs have higher deformability ≥0.5 EI and SCD RBCs have lower deformability or EI values as studied by LORRCA ektacytometry in the field. […] The induced hemolysis model in this disclosure involves use of tert-butyl hydroperoxide (TBHP) to lower EI of RBCs.
# The ex vivo hemolysis study disclosed here involves overnight treatment of whole blood with vehicle as a control and specific amino acids followed by rapid oxidation (5 min) with TBHP. Method for oxidation of whole blood with tert-butyl hydroperoxide has been used in prior literature (Diederich L, et al, Front Physiol. 2018 May 11; 9:332). RBC deformability or shape changes are then measured with LORRCA ektacytometry.
# Whole blood aliquots stored in the fridge were brought up to room temperature while gently shaking on a rocker at low speed for an hour to ensure gradual and uniform suspension of red blood cells prior to deformability measurements. Vehicle control used in the study was 1× Dulbecco's […]) and amino acids disclosed herein were added (at either final 10× or 2.5 mM concentration as indicated) to corresponding vehicle and amino acid treatment conditions. The samples were then incubated overnight at 37° C. The next day, 25 μl of whole blood was taken from each treatment condition and added to 5 mL Elon ISO viscous solution from RR Mechatronics. The sample was inverted 15-20 times to ensure proper mixing of the treated RBCs with the Elon ISO solution followed by loading the sample on LORRCA and capturing RBC deformability or shape measurements over the applied shear gradient. The remaining whole blood treatments were returned to incubator (37° C.) until deformability measurements were completed for all treatments. To the remaining whole blood treatment samples, TBHP solution (5.0-6.0 M in Decane, Sigma) was added at 2.5 mM final concentration from a 100 mM freshly prepared stock and incubated for further 5 min at 37° C. 25 μl of this TBHP-treated sample was immediately removed at the end of the 5 min incubation and added to the Elon ISO solution for RBC deformability measurement after oxidation. Included in the Tables 13-15 are EI measurements at ½ EImax shear stress 1.69 Pa and EImax shear stress 30 Pa from these studies and FIG. 1 captures EI measurements for all shear stress points for the indicated treatment conditions.
# [4] = test system: IL-6; assay: Secreted IL-6 in HLMVEC treated with TNF-α (FirePlex); assay type: cell-based, human; settings: HLMVEC + 0.5 ng/mL TNF-α, 24 h; amino acids 20x HMDB, Nac/Cit/Car 5 mM as bracketed
# Method: (§2) Primary Human Lung Microvascular Endothelial Cells (HLMVEC; Lonza) were seeded at 6,000 cells per well in Endothelial Cell Growth Basal Medium-2 (Lonza) supplemented with Fetal Bovine Serum (FBS; Lonza), human EGF (Lonza), human VEGF (Lonza), R3-Insulin-like Growth Factor-1 (Lonza), ascorbic acid (Lonza), hydrocortisone (Lonza), human FGF-beta (Lonza), and gentamicin/amphotericin-b (Lonza) in a 96-well plate (Thermo Fisher). The cells were incubated for 45 minutes at room temperature, then incubated overnight at 37° C./5% CO2.
# (§3) Following overnight incubation, cell were washed once with 150 μL of Dulbecco's phosphate buffered saline (DPBS; Gibco), and then treated with Endothelial Basal Medium MCB-131 (amino acid, glucose, sodium pyruvate, and phenol red free; US Biologicals) containing a defined custom amino acid concentration based on physiological concentrations in blood of patients with SCD (thus recapitulating observed metabolic imbalances such as the depletion of certain essential amino acids including arginine and aspartate and enrichment of certain non-essential amino acids including glutamate and asparagine), dialyzed FBS (Hyclone), human EGF (Lonza), human VEGF (Lonza), R3-Insulin-like Growth Factor-1 (Lonza), ascorbic acid (Lonza), hydrocortisone (Lonza), human FGF-beta (Lonza), and gentamicin/amphotericin-b (Lonza), glucose, 10 mM HEPES, sodium pyruvate, and sodium bicarbonate supplemented with one of the following: • a. PBS (vehicle control), • b. 0.5 ng/mL Tumor Necrosis Factor alpha (TNFα) and PBS, or; • c. 0.5 ng/mL TNF-α and amino acid treatments at 20× mean physiological concentrations in plasma based on values published in the Human Metabolome Database (HMDB) in PBS.
# Supernatants were analyzed for IL-6 concentrations using a Human Cytokines FirePlex-HT Panel 1 kit (abcam) according to the manufacturer-supplied instructions. Particles were imaged on a high content imager (Molecular Devices), and results were interpolated from a standard curve with FirePlex Analysis Workbench Software (abcam) according manufacturer's recommendations.
# [5] = test system: ICAM-1; assay: ICAM-1 cell integrated intensity in HLMVEC treated with TNF-α (immunofluorescence); assay type: cell-based, human; settings: HLMVEC + 0.5 ng/mL TNF-α, 24 h; amino acids 20x HMDB, Nac/Cit/Car 5 mM as bracketed
# Method: as §2, §3
# (§4) After 24 hours of treatment, cells were washed once with 150 μL of DPBS (Gibco), then fixed with 4% paraformaldehyde. Following fixation, cells were stained with anti-ICAM-1 [MEM-111] (mouse IgG2a anti-human; abcam) and anti-VCAM1 [1.4C3] (mouse IgG1, K anti-human; abcam) primary antibodies at 1000×, and 100× dilutions respectively. Cells were then stained with Goat anti-Mouse IgG2a Cross-Adsorbed Secondary Antibody, Alexa Fluor 594 (Invitrogen) and Goat anti-Mouse IgG1 Cross-Adsorbed Secondary Antibody, Alexa Fluor 647 (Invitrogen) secondary antibodies. Nuclei were stained with Hoechst 3342 (Life Technologies).
# (§5) Antibody binding was detected by fluorescence microscopy using a high content imager (Molecular Devices). Images were analyzed using MetaXpress 6 software to determine the integrated intensity per cell for each wavelength corresponding to ICAM-1 or VCAM-1.
# [6] = test system: VCAM-1; assay: VCAM-1 cell integrated intensity in HLMVEC treated with TNF-α (immunofluorescence); assay type: cell-based, human
# Method: as §2, §3, §4, §5
# [7] = test system: HLMVEC; assay: META-rank score, composite of VCAM1, ICAM1 and IL6 in the HLMVEC model; assay type: cell-based, human; settings: HLMVEC + TNF-α; lower score = more optimal; 20x HMDB / 5 mM
# Method: The ability of single amino acids and combinations to simultaneously impact these phenotypes was measured by a META-rank score (Tables 17 and 18). META-rank score is a composite measure that considers the optimal impact on all 3 phenotypes (e.g. decrease VCAM1, ICAM1, and IL6) in the HLMVEC model.
# [8] = test system: whole blood from healthy controls; assay: ROS (DCF fluorescence) in whole blood of healthy control donors, H2O2-induced; assay type: cell-based, human
# Method: (§6) Whole blood samples were appropriately diluted in Ca^2+- and Mg^2+-free Dulbecco's phosphate buffered saline (DPBS, Life Technologies) and the concentration of erythrocytes (RBC/mL) was measured on a Cellometer K2 Fluorescent Viability Cell Counter according to the manufacturer's RBC/AOPI protocol (Nexcelom Biosciences).
# (§7) Cells were then diluted to 1×10^6 RBC/mL into either prewarmed 37° C. […] 2′-7′-dichlorofluorescin diacetate (DCF, Millipore Sigma), 20 mM in dimethyl sulfoxide (DMSO, Fisher) were added to a working concentration of 100 μM. Cells were incubated with dye for 15 minutes at 37° C., 5% CO2 in a tissue culture incubator, washed once, and resuspended in the 0.9 volumes of the same prewarmed 37° C. buffer with 5 minute spins at 500×g, accel/decal=5 in a swing arm centrifuge (Beckman Coulter). […] Where possible due to solubility constrains, pH-7.4-adjusted stock solutions of amino acids were used. Wells were mixed by pipetting and plates incubated at 37° C., 5% CO2 in a tissue culture incubator for 30 minutes. Optionally, 40 mM H2O2 (Millipore Sigma) freshly prepared in the same buffer was added to bring the concentration to 2 mM, wells mixed by pipetting, and plates were incubated an additional 30, 60, 120, or 240 minutes before fluorescence measurement of ROS signal on a Synergy H4 (BioTek) microplate reader with excitation=488 nm and emission=530 nm, and gain either set to autogain, 75, or 100.
# [9] = test system: sickle cell disease patient blood; assay: ROS (DCF fluorescence) in sickle cell disease patient whole blood; assay type: cell-based, human
# Method: as §6, §7
# [10] = Donor 1, Conc. 109 μM (baseline)
compound,measurement,setting,value
N=C(N)NCCC[C@H](N)C(=O)O [Arginine],Donor 1 IL-6 Measurements Mean,[1]; [10],0
same,Donor 1 IL-6 Measurements Mean,"[1]; Donor 1, Conc. 1088 μM",−181.36
same,Donor 1 IL-6 Measurements Mean,"[1]; Donor 1, Conc. 2720 μM",−186.57
same,Donor 1 IL-6 Measurements Mean,"[1]; Donor 1, Conc. 5440 μM",357.4394
same,effect on LPS-induced IL-6 secretion,"[1]; Donor 1, Two Way ANOVA Dunnett",increased
same,Donor 2 IL-6 Measurements Mean,[1]; Conc. 109 μM (baseline),2.37E−15
same,Donor 2 IL-6 Measurements Mean,[1]; Conc. 1088 μM,−9.701
same,Donor 2 IL-6 Measurements Mean,[1]; Conc. 2720 μM,−13.6102
same,Donor 2 IL-6 Measurements Mean,[1]; Conc. 5440 μM,−12.4164
same,Donor 3 IL-6 Measurements Mean,[1]; Conc. 109 μM (baseline),0
same,Donor 3 IL-6 Measurements Mean,[1]; Conc. 1088 μM,31.5786
same,Donor 3 IL-6 Measurements Mean,[1]; Conc. 2720 μM,−7.503
same,Donor 3 IL-6 Measurements Mean,[1]; Conc. 5440 μM,−6.81
same,TNF-α Measurements Mean,[2]; [10],0
same,TNF-α Measurements Mean,"[2]; Donor 1, Conc. 1088 μM",−24.33
same,TNF-α Measurements Mean,"[2]; Donor 1, Conc. 2720 μM",5.12
same,TNF-α Measurements Mean,"[2]; Donor 1, Conc. 5440 μM",62.06
same,TNF-α Measurements Mean,"[2]; Donor 2, Conc. 109 μM (baseline)",1.42E−14
same,TNF-α Measurements Mean,"[2]; Donor 2, Conc. 1088 μM",−12.7222
same,TNF-α Measurements Mean,"[2]; Donor 2, Conc. 2720 μM",−3.763
same,TNF-α Measurements Mean,"[2]; Donor 2, Conc. 5440 μM",−0.5738
same,TNF-α Measurements Mean,"[2]; Donor 3, Conc. 109 μM (baseline)",3.55E−15
same,TNF-α Measurements Mean,"[2]; Donor 3, Conc. 1088 μM",3.131
same,TNF-α Measurements Mean,"[2]; Donor 3, Conc. 2720 μM",−0.9669
same,TNF-α Measurements Mean,"[2]; Donor 3, Conc. 5440 μM",−1.767
same,"EI over vehicle control, both ½ EImax and EImax",[3],higher than the vehicle
"NC(=O)NCCC[C@H](N)C(=O)O [Cit, citrulline]","EI over vehicle control, both ½ EImax and EImax",[3],higher than the vehicle
same,Secreted IL6 Median,[4],−0.270
same,ICAM-1 Cell Integrated Intensity Median,[5],−0.118
same,VCAM-1 expression in HLMVEC,"[6]; 0.5 ng/mL TNF-α, amino acids at 20× HMDB, 24 hours",moderate effect
same,VCAM-1 Cell Integrated Intensity Median,"[6]; HLMVEC + 0.5 ng/mL TNF-α, 24 h, amino acids 20x HMDB, Nac/Cit/Car 5 mM as bracketed",−0.157
same,Meta-Rank (Table 18),[7],8
same,Metarank (Table 17),[7],16
N[C@@H](CS)C(=O)O [cysteine],ROS measured in whole blood,"[8]; healthy control donors treated with H2O2, dose-responsive",reduced
same,ROS measured in whole blood,"[9]; both treated with H2O2 and untreated, in DPBS",reduced
N[C@@H](Cc1c[nH]c2ccccc12)C(=O)O [tryptophan],ROS signal,"[8]; healthy donor blood, 10×",increased
same,ROS signal,[9]; 10×,increased
